Experimental data: EP1037653B1, “COMPOSITIONS AND METHODS FOR REGULATING PHAGOCYTOSIS AND ICAM-1 EXPRESSION” (JOHNSON & JOHNSON CONSUMER COMPANIES, INC., priority 1997, dated 1999)

Legend:
[1] = tested on: human primary keratinocytes; assay: Fluorescent microsphere ingestion (phagocytosis), fluorescence microscopy; format: cell-based; details: treated two days; Compound I 1µM, SLIGRL 10µM; vs vehicle control; Figure 1
Experimental: (§1) In order to study the role of the PAR-2 pathway in phagocytosis, several in vitro model systems were used. One system used contained primary human keratinocytes or a human keratinocyte cell line. In this and a number of following examples, cells were treated with test compounds for different amounts of time (from one hour to three days), and samples were then incubated with fluorescent microspheres for two hours. The beads ingested by the cells were photographed using fluorescence microscopy.
(§2) In this example, human primary keratinocytes or the human keratinocyte cell line HaCaT were used as in vitro model systems to study the effect of PAR-2 regulators on keratinocyte phagocytosis. The human primary keratinocytes used are commercially available from Clonetics (San Diego, CA). Cells were plated on chamber slides, at 2 chambers/slide and 60,000 cells/chamber. […]

[2] = tested on: human keratinocyte cell line HaCaT; assay: as above; format: cell-based; details: Figure 2, repeated at least three times
Experimental: as §1, §2

[3] = tested on: macrophage cell line IC-21; assay: Fluorescent microsphere ingestion (phagocytosis); format: cell-based; details: IC-21 macrophages
Experimental: (§3) In this example, human primary keratinocytes or the human keratinocyte cell line HaCaT were used as in vitro model systems to study the effect of PAR-2 regulators on keratinocyte phagocytosis. The human primary keratinocytes used are commercially available from Clonetics (San Diego, CA). Cells were plated on chamber slides, at 2 chambers/slide and 60,000 cells/chamber. Cells were treated once daily, for two or three days, with Compound I (1µM), SLIGRL (10µM), or vehicle (Phosphate-buffered saline, ("PBS") from Gibco-BRL (Gaithersburg, MD). After two or three days of exposure to the test compounds, cells were exposed to Nile-red or FITC fluorescent microspheres, 1 µm in diameter, 50 microspheres/cell, for two hours at 37°C. Microspheres were from Molecular Probes (Eugene, OR), and were processed according to manufacturer's instructions. Following that treatment, cells were incubated with 15% Fetal Bovine Serum ("FBS", from Gibco-BRL), for 15 minutes at 37°C and rinsed with PBS. At that time, chambers were separated from the slides, and the slides were covered with glycerol and coverslips. Fluorescent microscopy was performed using a Zeiss Axiovert 35 or a Nikon Optiphot-2 microscope.
The experiment described in Example 1 was repeated using the macrophage cell line IC-21 (obtained from the ATCC), which shares phagocytic characteristics with peritoneal macrophages. […]

[4] = tested on: macrophage cell line IC-21; assay: Vybrant Phagocytosis Assay Kit, ingestion of fluorescein-labeled E. Coli K-12 particles; format: cell-based; details: treated overnight; 100nM Compound I, 5µM SLIGRL, 0.1 mg/ml STI; untreated control = 100; one of three experiments
Experimental: To better quantify the level of phagocytosis, the "vybrant™ Phagocytosis Assay Kit" of Molecular Probes (Eugene, Oregon) was used, following manufacturer's instructions, with modification of cell culture conditions for the IC-21 cell line. This kit uses Fluorescein-labeled E. Coli K-12 particles, and is designed for quantifying the effects of drugs or other environmental factors on phagocytic functions. Macrophages were treated overnight with 100nM of Compound I, 5µM of SLIGRL, or 0.1 mg/ml of STI, all dissolved in PBS. The ability of the treated macrophages to ingest the fluorescent E. Coli, as measured by this kit, is documented in Table 1. This experiment was repeated three times.
In order to verify the quantitative nature of the macrophage-phagocytosis assay, a dose-response experiment was performed. Macrophages were treated with 0, 0.01, 0.1 and 1 mg/ml of STI, and the experiment was performed as described in Example 3. […] Each experiment was repeated three times.

Human keratinocytes [5] = assay: Keratinocyte microsphere phagocytosis dose-response, image analysis of fluorescent beads; format: cell-based; details: two days; SLIGRL 0, 5 and 10 µM; Compound I 1pM to 1µM; STI 0.01 to 1 mg/ml
Experimental: as §3, with “microscope. […]” for “microscope.”
Image analysis of the fluorescent beads inside the keratinocytes was used as an alternative way to quantify the phagocytic effect in this system. […]

Human keratinocytes [6] = assay: Timing of effect on keratinocyte microsphere phagocytosis; format: cell-based; design: key: +: Plus signs indicate an effect on phagocytosis; -: minus signs indicate no effect on phagocytosis; -/+: plus/minus signs indicate a marginal effect on phagocytosis; details: decrease for Compound I, increase for SLIGRL
Experimental: as §3
Human keratinocytes were treated with Compound I or SLIGRL for periods of time ranging from one hour to two days. At the end of the treatment period, the cells were treated with microspheres as described in Example 1. […] Plus signs indicate an effect on phagocytosis, minus signs indicate no effect on phagocytosis, and plus/minus signs indicate a marginal effect on phagocytosis. The effects measured were a decrease for Compound I and an increase for SLIGRL. […] This implies that the PAR-2 signaling results in new protein synthesis, a reduction in protein synthesis when a turnover time is required to eliminate the existing relevant protein(s), or a rearrangement of proteins (as occurs in the reorganization of cytoskeletal components).

Keratinocytes [7] = assay: Melanin uptake by keratinocytes, Fontana-Mason staining; format: cell-based; details: treated two days; melanin powder two hours; Figure 5A; same results with isolated melanosomes (Figure 5B)
Experimental: This example tests the ability of keratinocytes to acquire melanin or melanosomes in vitro, and thus function as a simplified system for melanosome uptake in the skin. Keratinocytes were plated in glass chamber-slides as described earlier, and were treated for two days with SLIGRL, Compound I or STI. At that time, melanin powder (from Sigma, St. Louis, MO) was mixed in sterile PBS at 10 µg/ml, and was added to the culture media (1:10 dilution) for two hours. Cells were then washed with PBS and stained with Fontana-Mason ("F&M") staining. F&M stains silver nitrate-reducing molecules, thereby permitting the identification of melanins inside the keratinocytes. […] This system, therefore, can mimic melanosome transfer and melanin distribution in vivo, as skin keratinocytes use melanin as an UV-protective cap over their nuclei. […] The same results were also observed using melanosomes isolated as described in S. Orlow, et al., J.I.D. 100:55-64 (1993) (Figure 5B).

[8] = tested on: Primary melanocyte cultures plated under epidermal equivalents (EpiDerm); assay: Melanosome transfer (pigmentation) in equivalent-monolayer co-culture without keratinocyte-melanocyte contact; format: cell-based; details: no keratinocyte/melanocyte contact
Experimental: (§4) Since PAR-2 is expressed in keratinocytes, but not in melanocytes, the possible requirement of keratinocyte-melanocyte contact was tested for the effect of Compound I and SLIGRL on melanosome phagocytosis by the keratinocytes. Primary melanocyte cultures (commercially available from Clonetics, San Diego) were plated under epidermal equivalents (EpiDerm, of MatTek, Ashland, MA) to create an equivalent-monolayer co-culture with no contact between keratinocytes and melanocytes. These co-cultures were compared to MelanoDerm equivalents (of MatTek), where melanocytes are present in the basal layer of the equivalent. Cultures were treated with Compound I, with the […] agonist SLIGRL. As set forth in Table 3, keratinocytes are indicated by "K", melanocytes are indicated by "M", and lack of keratinocyte-melanocyte contact is indicated as "no K-M cont". […] The same result was also observed with monolayer keratinocyte/melanocyte co-cultures having keratinocyte/melanocyte contact.

MelanoDerm equivalents = assay: Melanosome transfer (pigmentation) in melanocyte-containing equivalents; format: cell-based; details: same result in monolayer co-cultures with keratinocyte/melanocyte contact
Experimental: as §4

ICAM-1 [9] = assay: ICAM-1 immunofluorescent staining of keratinocytes; format: cell-based, human; details: vs untreated keratinocytes; Figure 6A
Experimental: Intercellular adhesion molecule-1 (ICAM-1) is an inducible cell-surface glycoprotein that is implicated in cell-cell adhesion, cell membrane raffling and phagocytosis. Therefore, the effect of PAR-2 modulation on ICAM-1 was tested. Keratinocytes were grown in chamber slides and treated with SLIGRL, Compound I and STI as described, followed by immunofluorescent staining for ICAM-1 using standard procedures. Normal donkey serum, (used at 1:5 dilution), was obtained from Jackson Immunoresearch Laboratory (Westgrove, PA). A polyclonal goat antihuman ICAM-1 antibody, (used at 1:200 dilution), was obtained from R&D Systems (Minneapolis, MN), and FITC-conjugated donkey anti-goat antibody was obtained from Jackson Immunoresearch Laboratory. […] In untreated keratinocytes, ICAM-1 was localized mainly to the plasma membrane, with some staining at the nuclear membrane.

ICAM-1 [10] = assay: ICAM-1 immuno-precipitation and Western blotting in keratinocytes; format: cell-based; details: treated keratinocytes; Figure 6B
Experimental: Immuno-precipitation and Western blotting experiments were performed, according to known methods, to assess the level of ICAM-1 protein in treated keratinocytes.

Human PMN cells = assay: Boyden chamber chemotactic cell migration towards FMLP; format: cell-based; details: with FMLP; cells counted at 115 microns; pretreated with 5 or 0.5 mg/ml STI, 1 or 0.1 µM Compound I; FMLP alone 41
Experimental: Since ICAM-1 is involved in cell migration, cell migration towards a chemotactic peptide was studied in cells treated with Compound I and STI. Human PMN cells were placed in one side of a Boyden chamber, using standard techniques, and a chemotactic peptide (FMLP) was placed in the other chamber. Cells were allowed to migrate into the second chamber, and the number of migrating cells per field and distance of migration were calculated. The experiment was repeated with PMN cells pretreated with one of the following: 5 or 0.5 mg/ml STI, 1 or 0.1 µM Compound I, a buffer vehicle, and with and without chemotactic peptide. The number of cells per field that migrated the same distance as the untreated control was measured. Without the peptide and with no treatment, an average of 19 cells/field were migrating a distance of 80 microns. […] In other words, no cells (or less than 5/field) were identified at 115 microns. […] The ability to inhibit PMN migration is an important constituent of anti-inflammatory compounds.

Keratinocytes [11] = assay: Scanning electron microscopy of cell podia; format: cell-based; details: treated two days; vs vehicle-treated controls; Figure 8
Experimental: Both phagocytosis and cell migration involve changes in cell shape. Therefore, the effect of the PAR-2 pathway reagents on cell podia were studied using scanning electron microscopy. Keratinocytes were treated with Compound I (identified as "SH00230"), SLIGRL and a buffer vehicle for two days, and then processed for SEM using standard techniques. […] In other words, the cells' "fingers" are shorter and malformed, so they cannot grasp objects as well as can the control cells. […] In other words, these cells have a greater probability for productive interaction with particles. Comparing these SEM pictures in Figure 8, it is clear that SLIGRL-treated cells have a greater ability to interact with particles, while Compound 1-treated cells are less suited for such a task.

Keratinocytes [12] = assay: F-actin staining, cytoskeletal organization; format: cell-based; details: Compound I 10 nM, STI 0.1 mg/ml, SLIGRL 5 µM; Figure 9
Experimental: Therefore, the organization of F-actin filaments following PAR-2 modulation was tested. Keratinocytes were treated with Compound I (10 nM), STI (0.1 mg/ml), or with SLIGRL (5 µM) as described in Example 1, and stained for F-actin using standard techniques.

(S)-N-Methyl-D-phenylalanyl-N-[4-[(aminoiminomethyl)amino]-1-(2-benzothiazolylcarbonyl)butyl]-L-prolinamide [Compound I]
quantity of ingested microspheres [1]: dramatic reduction in the quantity of ingested microspheres
microsphere ingestion [2]: reduce microsphere ingestion
number of microspheres ingested [3]: reduced
% effect (ingestion) [4]: 89.9 +/- 13.6%
phagocytosis with increasing concentrations (Human keratinocytes [5]): dose-dependent decrease in phagocytosis
effect on phagocytosis (Human keratinocytes [6]; Time of Treatment 1 hour): -
effect on phagocytosis (Human keratinocytes [6]; Time of Treatment 2 hours): -
effect on phagocytosis (Human keratinocytes [6]; Time of Treatment 4 hours): -
effect on phagocytosis (Human keratinocytes [6]; Time of Treatment 6 hours): -
effect on phagocytosis (Human keratinocytes [6]; Time of Treatment 8 hours): -/+
effect on phagocytosis (Human keratinocytes [6]; Time of Treatment 16 hours): +
effect on phagocytosis (Human keratinocytes [6]; Time of Treatment 24 hours): +
effect on phagocytosis (Human keratinocytes [6]; Time of Treatment 48 hours): +
uptake of melanin by keratinocytes (Keratinocytes [7]): dramatically reduce the uptake of melanin
effect on melanosome transfer, measured as the level of pigmentation [8]: no effect on melanosome transfer
pigmentation by affecting melanosome transfer (MelanoDerm equivalents): reduced
intracellular localization of ICAM-1 (ICAM-1 [9]): less staining was observed at the cytoplasmic membrane, and more at the nuclear membrane
level of ICAM-1 protein (ICAM-1 [10]): decreased the level of ICAM-1 expression
Cells/Field (Human PMN cells): <5
shape of cell podia (Keratinocytes [11]): dramatically shorter podia
actin filaments organization (Keratinocytes [12]): reduced the ordered organization of the cell cortex
